Experimental data as given in US11957687B2 (REGENERON PHARMACEUTICALS, INC., priority 2019, dated 2024).

What follows are compounds tested against HSD17B13 (Homo sapiens (Human), UniProt Q7Z5P4) (assay: HSD17B13 enzymatic inhibition assay (150 nM or 50 nM HSD17B13)). Conditions: 50 nM HSD17B13; read-out: Inhibition of 50 nM of HSD17B13 IC50.
Format: biochemical

Chain of HSD17B13 (Q7Z5P4 other isoform, or with tags, fused parts or gaps): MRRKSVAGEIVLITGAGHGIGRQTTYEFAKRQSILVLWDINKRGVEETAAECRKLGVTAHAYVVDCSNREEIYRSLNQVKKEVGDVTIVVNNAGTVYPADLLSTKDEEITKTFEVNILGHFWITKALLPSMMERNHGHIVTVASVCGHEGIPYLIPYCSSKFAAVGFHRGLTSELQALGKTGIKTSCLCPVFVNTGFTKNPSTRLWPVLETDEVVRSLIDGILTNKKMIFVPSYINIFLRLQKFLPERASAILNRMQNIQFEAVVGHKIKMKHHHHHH

| Structure (SMILES) | IC50 [µM] |
| --- | --- |
| CCN1CCC(NC(=O)c2ccc(C(F)(F)F)[nH]c2=O)c2ccc(C)cc21 (stereo not shown) [Compound 336, N-(1-ethyl-7-methyl-1,2,3,4-tetrahydroquinolin-4-yl)-2-oxo-6-(trifluoromethyl)-1,2-dihydropyridine-3-carboxamide] | 5.79 |
| CC[C@@H]1C[C@@H](NC(=O)c2ccc(C(F)(F)F)[nH]c2=O)c2cc(C)ccc2N1 [Compound 364, N-((2R,4R)-2-ethyl-6-methyl-1,2,3,4-tetrahydroquinolin-4-yl)-2-oxo-6-(trifluoromethyl)-1,2-dihydropyridine-3-carboxamide] | 0.6 |
| CC[C@@H]1C[C@@H](NC(=O)c2ccc(C(F)(F)F)[nH]c2=O)c2ccc(C)cc2N1 [Compound 367, N-((2R,4R)-2-ethyl-7-methyl-1,2,3,4-tetrahydroquinolin-4-yl)-2-oxo-6-(trifluoromethyl)-1,2-dihydropyridine-3-carboxamide] | 0.38 |
| Cc1ccc2c(c1)C(NC(=O)c1ccc(C(F)(F)F)[nH]c1=O)c1ccccc1S2(=O)=O (stereo not shown) [Compound 470, N-(2-methyl-10,10-dioxido-9H-thioxanthen-9-yl)-2-oxo-6-(trifluoromethyl)-1,2-dihydropyridine-3-carboxamide] | 0.42 |
| COc1ccc2c(c1)Oc1cc(OC)ccc1C2NC(=O)c1cc(OC2CCOCC2)c(C(F)(F)F)[nH]c1=O [Compound 259, N-(3,6-dimethoxy-9H-xanthen-9-yl)-2-oxo-5-((tetrahydro-2H-pyran-4-yl)oxy)-6-(trifluoromethyl)-1,2-dihydropyridine-3-carboxamide] | 0.07 |
| Cc1ccc2c(c1)Oc1cccc(C)c1C2NC(=O)c1c(C)cc(C(F)(F)F)[nH]c1=O (stereo not shown) [Compound 199, N-(1,6-dimethyl-9H-xanthen-9-yl)-4-methyl-2-oxo-6-(trifluoromethyl)-1,2-dihydropyridine-3-carboxamide] | 5.15 |
| Cc1ccc2c(c1)Sc1ccccc1C2NC(=O)c1ccc(C(F)F)[nH]c1=O (stereo not shown) [Compound 275, 6-(difluoromethyl)-N-(3-methyl-9H-thioxanthen-9-yl)-2-oxo-1,2-dihydropyridine-3-carboxamide] | 0.1 |
| O=C(Nc1cccc(Cl)c1)c1ccc(C(F)(F)F)[nH]c1=O [Compound 227, N-(3-chlorophenyl)-2-oxo-6-(trifluoromethyl)-1,2-dihydropyridine-3-carboxamide] | 9.85 |
| CCc1cc(C(=O)NC2c3ccc(Cl)cc3Oc3cc(Cl)ccc32)c(=O)[nH]c1C(F)(F)F [Compound 172, N-(3,6-dichloro-9H-xanthen-9-yl)-5-ethyl-2-oxo-6-(trifluoromethyl)-1,2-dihydropyridine-3-carboxamide] | 0.14 |
| O=C(NC(c1ccccc1)c1ccc2c(c1)COCC2)c1ccc(C(F)(F)F)[nH]c1=O (stereo not shown) [Compound 83, N-(isochroman-7-yl(phenyl)methyl)-2-oxo-6-(trifluoromethyl)-1,2-dihydropyridine-3-carboxamide] | 2.37 |
| Cc1ccc2c(c1)Oc1cc(C)ccc1C2NC(=O)c1ccc(-c2ccccc2)[nH]c1=O [Compound 459, N-(3,6-dimethyl-9H-xanthen-9-yl)-2-oxo-6-phenyl-1,2-dihydropyridine-3-carboxamide] | > 10 |
| CCc1ccc2c(c1)-c1cc(CC)ccc1C2NC(=O)c1ccc(C(F)(F)F)[nH]c1=O [Compound 42, N-(3,6-diethyl-9H-fluoren-9-yl)-2-oxo-6-(trifluoromethyl)-1,2-dihydropyridine-3-carboxamide] | 1.3 |
| O=C(NC(c1ccccc1)c1ccc2c(c1)CCCO2)c1ccc(C(F)(F)F)[nH]c1=O (stereo not shown) [Compound 81, N-(chroman-6-yl(phenyl)methyl)-2-oxo-6-(trifluoromethyl)-1,2-dihydropyridine-3-carboxamide] | 1.09 |
| CCCC1Cc2cc(C)ccc2C1NC(=O)c1ccc(C(F)(F)F)[nH]c1=O (stereo not shown) [Compound 287, N-(5-methyl-2-propyl-2,3-dihydro-1H-inden-1-yl)-2-oxo-6-(trifluoromethyl)-1,2-dihydropyridine-3-carboxamide] | 0.06 |
| CC(C)(C)OC(=O)Nc1ccc(CSc2ncc(C(=O)NC3c4ccc(Cl)cc4Oc4cc(Cl)ccc43)c(=O)[nH]2)cc1 [Compound 513, tert-butyl (4-(((5-((3,6-dichloro-9H-xanthen-9-yl)carbamoyl)-6-oxo-1,6-dihydropyrimidin-2-yl)thio)methyl)phenyl)carbamate] | 0.92 |
| CCc1ccc2c(c1)Oc1ccccc1C2NC(=O)c1ccc(C(F)(F)F)[nH]c1=O (stereo not shown) [Compound 162, N-(3-ethyl-9H-xanthen-9-yl)-2-oxo-6-(trifluoromethyl)-1,2-dihydropyridine-3-carboxamide] | 0.08 |
| CCc1cccc(C(NC(=O)c2ccc(C(F)(F)F)[nH]c2=O)c2ccccc2S(C)(=O)=O)c1 (stereo not shown) [Compound 456, N-((3-ethylphenyl)(2-(methylsulfonyl)phenyl)methyl)-2-oxo-6-(trifluoromethyl)-1,2-dihydropyridine-3-carboxamide] | 4.83 |

| Structure (SMILES) | IC50 [µM] |
| --- | --- |
| COc1ccccc1C(NC(=O)c1ccc(C(F)(F)F)[nH]c1=O)c1cccc(C)c1 (stereo not shown) [Compound 243, N-((2-methoxyphenyl)(m-tolyl)methyl)-2-oxo-6-(trifluoromethyl)-1,2-dihydropyridine-3-carboxamide] | 2.16 |
| Cc1cc(C(=O)NC2c3ccc(Cl)cc3Oc3cc(Cl)ccc32)c(=O)[nH]c1C(F)(F)F [Compound 165, N-(3,6-dichloro-9H-xanthen-9-yl)-5-methyl-2-oxo-6-(trifluoromethyl)-1,2-dihydropyridine-3-carboxamide] | 0.11 |
| C=CCc1cc(C(=O)NC2c3ccc(Cl)cc3Oc3cc(Cl)ccc32)c(=O)[nH]c1C(F)(F)F [Compound 173, 5-allyl-N-(3,6-dichloro-9H-xanthen-9-yl)-2-oxo-6-(trifluoromethyl)-1,2-dihydropyridine-3-carboxamide] | 0.03 |
| CC[C@@H]1Oc2cc(C)ccc2[C@@H]1NC(=O)c1ccc(C(F)(F)F)[nH]c1=O [Compound 359, N-((2S,3S)-2-ethyl-6-methyl-2,3-dihydrobenzofuran-3-yl)-2-oxo-6-(trifluoromethyl)-1,2-dihydropyridine-3-carboxamide] | 2.15 |
| O=C(NC1c2ccccc2Oc2cccnc21)c1ccc(C(F)(F)F)[nH]c1=O (stereo not shown) [Compound 331, N-(10H-chromeno[3,2-b]pyridin-10-yl)-2-oxo-6-(trifluoromethyl)-1,2-dihydropyridine-3-carboxamide] | 0.6 |
| Cc1ccc2c(c1)N(CCOCc1ccccc1)CCC2NC(=O)c1ccc(C(F)(F)F)[nH]c1=O (stereo not shown) [Compound 316, N-(1-(2-(benzyloxy)ethyl)-7-methyl-1,2,3,4-tetrahydroquinolin-4-yl)-2-oxo-6-(trifluoromethyl)-1,2-dihydropyridine-3-carboxamide] | 5.96 |
| CC(C)(C)OC(=O)NCCN1Cc2ccccc2C(NC(=O)c2ccc(C(F)(F)F)[nH]c2=O)C1 (stereo not shown) [Compound 314, tert-butyl (2-(4-(2-oxo-6-(trifluoromethyl)-1,2-dihydropyridine-3-carboxamido)-3,4-dihydroisoquinolin-2(1H)-yl)ethyl)carbamate] | 5.52 |
| C=C(C)c1ccc(C(NC(=O)c2ccc(C(F)(F)F)[nH]c2=O)c2ccccc2)cc1 (stereo not shown) [Compound 30, 2-oxo-N-(phenyl(4-(prop-1-en-2-yl)phenyl)methyl)-6-(trifluoromethyl)-1,2-dihydropyridine-3-carboxamide] | 0.75 |
| Cc1ccc2c(c1)C(NC(=O)c1ccc(C(F)(F)F)[nH]c1=O)CC2 (stereo not shown) [Compound 237, N-(6-methyl-2,3-dihydro-1H-inden-1-yl)-2-oxo-6-(trifluoromethyl)-1,2-dihydropyridine-3-carboxamide] | 0.49 |
| COc1cc(C)cc2c1CCC2NC(=O)c1ccc(C(F)(F)F)[nH]c1=O (stereo not shown) [Compound 256, N-(4-methoxy-6-methyl-2,3-dihydro-1H-inden-1-yl)-2-oxo-6-(trifluoromethyl)-1,2-dihydropyridine-3-carboxamide] | > 10 |
| O=C(NC(c1ccccc1)c1ccc2c(c1)CNC2)c1ccc(C(F)(F)F)[nH]c1=O (stereo not shown) [Compound 113, N-(isoindolin-5-yl(phenyl)methyl)-2-oxo-6-(trifluoromethyl)-1,2-dihydropyridine-3-carboxamide] | > 10 |
| O=C(NC1c2ccc(C3CC3)cc2Oc2cc(C3CC3)ccc21)c1ccc(C(F)(F)F)[nH]c1=O [Compound 145, N-(3,6-dicyclopropyl-9H-xanthen-9-yl)-2-oxo-6-(trifluoromethyl)-1,2-dihydropyridine-3-carboxamide] | 0.21 |
| O=C(NC1c2ccc(Cl)cc2Oc2cc(Cl)ccc21)c1cnc(COc2ccc(C(F)(F)F)cc2)[nH]c1=O [Compound 517, N-(3,6-dichloro-9H-xanthen-9-yl)-6-oxo-2-((4-(trifluoromethyl)phenoxy)methyl)-1,6-dihydropyrimidine-5-carboxamide] | 0.57 |
| Cc1ccc2c(c1)S(=O)(=O)c1cc(C)ccc1C2NC(=O)c1cc(NC2CCCCC2)c(C(F)(F)F)[nH]c1=O [Compound 428, 5-(cyclohexylamino)-N-(3,6-dimethyl-10,10-dioxido-9H-thioxanthen-9-yl)-2-oxo-6-(trifluoromethyl)-1,2-dihydropyridine-3-carboxamide] | 0.02 |
| Cc1ccc2c(c1)Oc1cccc(C)c1C2NC(=O)c1cc(C)c(C(F)(F)F)[nH]c1=O (stereo not shown) [Compound 164, N-(1,6-dimethyl-9H-xanthen-9-yl)-5-methyl-2-oxo-6-(trifluoromethyl)-1,2-dihydropyridine-3-carboxamide] | 0.9 |
| O=C(Nc1cccc2cc(O)ccc12)c1ccc(C(F)(F)F)[nH]c1=O [Compound 229, N-(6-hydroxynaphthalen-1-yl)-2-oxo-6-(trifluoromethyl)-1,2-dihydropyridine-3-carboxamide] | 1.4 |

Same assay, conditions: 150 nM HSD17B13; read-out: Inhibition of 150 nM of HSD17B13 IC50

| Structure (SMILES) | IC50 [µM] |
| --- | --- |
| Cc1cccc(C(NC(=O)c2ccc(C(F)(F)F)[nH]c2=O)c2ccccc2)c1 (stereo not shown) [Compound 20, N-(phenyl(m-tolyl)methyl)-2-oxo-6-(trifluoromethyl)-1,2-dihydropyridine-3-carboxamide] | 2.11 |
